Reference: US20220096641A1, “PYRROLOBENZODIAZEPINE DIMER COMPOUND WITH IMPROVED SAFETY AND USE THEREOF” (priority 2019, published 2022)
Read-outs that look alike come from different tables or passages of the source. Square brackets hold non-standard residues; d marks the D form. Peptide text beside a SMILES is read from it. * marks the point of attachment. Dolaproine = CO[C@@H]([C@@H]1CCCN1)[C@@H](C)C(=O)O; Dil = CC[C@H](C)[C@H](NC)[C@@H](CC(=O)O)OC; X1 = C[C@@H](N*)[C@@H](O)c1ccccc1; NMeV = CN[C@H](C(=O)O)C(C)C

How the values were obtained:
[1] = system: Co-culture SK-BR3:MDA-MB-468 = 1:1; assay: Bystander effect experiment, co-culture; details: for viability at 0.001 µM: Homo sapiens, 144 h, read-out: Cell viability (%) Co-culture (SK-BR3:MDA-MB-468 = 1:1); for Cell viability (%) Co-culture (SK-BR3:MDA-MB-468 = 1:1): single concentration of 1 nM, 144 hours, SRB
Description: (§1) The cell proliferation inhibitory activity of the drugs and ADC presented in Table 4 below on cancer cell lines was measured. The SK-BR3 human breast cancer cell line (procured from Korea Cell Line Bank (KCLB)) was used as a HER2-positive cell line, and the MDA-MB-468 human triple-negative breast cancer cell line (procured from ATCC) was used as a HER2-negative cell line. […] All ADCs used in the experiment were anti-HER2 ADCs. In a 96-well plate, 6,000 SK-BR3, 6,000 MDA-MB-468, or 3,000 SK-BR3 and 3,000 MDA-MB-468 per well were seeded together, cultured for 24 hours, and then treated with each drug and ADC at a single concentration of 1 nM. After 144 hours, the number of viable cells was quantified using SRB (Sulforhodamine B) dye.

JIMT-1 (HER2 positive) = assay: In vitro cytotoxicity (cell proliferation inhibition, SRB), JIMT-1; type: cell-based; details: Homo sapiens
Description: (§2) The cell proliferation inhibitory activity of the drugs and ADCs presented in Tables 2 and 3 below on cancer cell lines was measured. As the cancer cell lines, commercially available human breast cancer cell lines MCF-7 (HER2 negative to normal), SK-BR3 (HER2 positive), and JIMT-1 (HER2 positive) were used. […] In a 96-well plate, 5,000 SK-BR3, 5,000 MCF-7, and 2,500 JIMT-1 per well were seeded, cultured for 24 hours, and then treated with ADCs at a concentration of 25 fM to 10 nM (5-fold serial dilutions) and drugs at a concentration of 25 fM to 10 nM (5-fold serial dilutions) or 1 fM to 100 nM (10-fold serial dilutions).

[2] = Rat pre-tox experiment (single dose toxicity); type: in vivo, SD rats; details: single tail vein dose; for inhibition of weight gain: SG2057 statement for 0.02 mg/kg and 0.04 mg/kg groups
Description: Twenty one 8-week-old male SD rats were divided into 7 groups of 3 rats each, the test material was administered thereto through the tail vein at 2 mL/kg one time, and the weight/death/clinical symptoms and the like thereof were observed. The body weight was measured two times a week, and death and clinical symptoms were observed daily. Four weeks after administration, planned slaughter was performed to examine the gross findings of organs. The results are as illustrated in FIG. 3.

[3] = system: SK-BR3 human breast cancer cell line (HER2-positive); assay: Bystander effect experiment, SK-BR3 alone; details: for viability at 0.001 µM: Homo sapiens, SK-BR-3, 144 h, read-out: Cell viability (%) SK-BR3; for Cell viability (%) SK-BR3: single concentration of 1 nM, 144 hours, SRB
Description: as §1

[4] = system: MDA-MB-468 human triple-negative breast cancer cell line (HER2-negative); assay: Bystander effect experiment, MDA-MB-468 alone; details: for viability at 0.001 µM: Homo sapiens, MDA-MB-468, 144 h, read-out: Cell viability (%) MDA-MB-468; for Cell viability (%) MDA-MB-468: single concentration of 1 nM, 144 hours, SRB
Description: as §1

[5] = system: MCF-7 (HER2 negative to normal); assay: In vitro cytotoxicity (cell proliferation inhibition, SRB), MCF-7; type: cell-based; details: Homo sapiens
Description: as §2

SK-BR3 (HER2 positive) = assay: In vitro cytotoxicity (cell proliferation inhibition, SRB), SK-BR3; type: cell-based; details: Homo sapiens
Description: as §2

[6] = system: Co-culture SK-BR3:MDA-MB-468 = 1:1; details: free toxin control materials; cited from earlier work
[7] = first of three dose groups (dose not given)
[8] = second of three dose groups (apparently 0.02 mg/kg)
[9] = third of three dose groups (apparently 0.04 mg/kg)
[10] = JIMT-1, 144 h, read-out: IC50 (nM) JIMT-1, pyrrolobenzodiazepine derivatives (free drugs), 144 hours, SRB
[11] = MCF7, 144 h, read-out: IC50 (nM) MCF7, pyrrolobenzodiazepine derivatives (free drugs), 144 hours, SRB
[12] = SK-BR-3, 144 h, read-out: IC50 (nM) SK-BR3, pyrrolobenzodiazepine derivatives (free drugs), 144 hours, SRB

**Q.** For `C=C1CC2CNc3cc(OCc4cc(COc5cc6c(cc5OC)C(=O)N5CC(=C)C[C@H]5CN6)cc(OCCOCCOCCOCC(=O)O)c4)c(OC)cc3C(=O)N2C1` (some centres unmarked) [Compound 32], which viability at 0.001 µM [1] is on record?
**A.** The viability at 0.001 µM was 98%.

**Q.** And the bystander effect ([1]; conclusion from mono- and co-culture viability at 1 nM)?
**A.** Its bystander effect is “do not exhibit a bystander effect”.

**Q.** What about the IC50 (JIMT-1 (HER2 positive); JIMT-1, pyrrolobenzodiazepine derivatives (free drugs), 144 hours, SRB, read-out: IC50 (nM) JIMT-1) of the same compound?
**A.** The IC50 was > 100 nM.

**Q.** And the “body weight at end of 4th week as compared to body weight at time of administration” value [2, 7]?
**A.** Its value is 171%.

**Q.** What about the “body weight at end of 4th week as compared to body weight at time of administration” value [2, 8] of the same compound?
**A.** The value was 164%.

**Q.** What about the “inhibition of weight gain” value [2] of the same compound?
**A.** The value was “very insignificant”.

**Q.** And the “body weight at end of 4th week as compared to body weight at time of administration” value [2, 9]?
**A.** Its value is 161%.

**Q.** And the viability at 0.001 µM [3]?
**A.** Its viability at 0.001 µM is 98%.

**Q.** What about the viability at 0.001 µM [4] of the same compound?
**A.** The viability at 0.001 µM was 101%.

**Q.** And the IC50 ([5]; MCF7, pyrrolobenzodiazepine derivatives (free drugs), 144 hours, SRB, read-out: IC50 (nM) MCF7)?
**A.** The IC50 was > 100 nM.

**Q.** What about the IC50 (SK-BR3 (HER2 positive); SK-BR-3, pyrrolobenzodiazepine derivatives (free drugs), 144 hours, SRB, read-out: IC50 (nM) SK-BR3) of the same compound?
**A.** The IC50 was 18.2 nM.

**Q.** With `C=C1C[C@H]2C=Nc3cc(OCc4cc(COc5cc6c(cc5OC)C(=O)N5CC(=C)C[C@H]5C=N6)cc(OCCOCCOCCOCC(=O)OC)c4)c(OC)cc3C(=O)N2C1` [Compound 33] as the compound, how does the IC50 (JIMT-1 (HER2 positive); [10]) read?
**A.** The IC50 was > 100 nM.

**Q.** What about the IC50 [5, 11] of the same compound?
**A.** The IC50 was > 100 nM.

**Q.** What about the IC50 (SK-BR3 (HER2 positive); [12]) of the same compound?
**A.** The IC50 was > 100 nM.

**Q.** For `C=C1C[C@H]2C=Nc3cc(OCc4cc(COc5cc6c(cc5OC)C(=O)N5CC(=C)C[C@H]5C=N6)cc(OCCOCCOCCOCC(=O)NC(CC(=O)O)CC(=O)O)c4)c(OC)cc3C(=O)N2C1` [Compound 52], which IC50 (JIMT-1 (HER2 positive); [10]) is on record?
**A.** Its IC50 is > 100 nM.

**Q.** And the IC50 [5, 11]?
**A.** Its IC50 is > 100 nM.

**Q.** What about the IC50 (SK-BR3 (HER2 positive); [12]) of the same compound?
**A.** The IC50 was > 100 nM.

**Q.** For `C=C1C[C@H]2C=Nc3cc(OCc4cc(COc5cc6c(cc5OC)C(=O)N5CC(=C)C[C@H]5C=N6)cc(OCCOCCOCCOCC(=O)NC(CC(=O)OC)CC(=O)OC)c4)c(OC)cc3C(=O)N2C1` [Compound 53], which IC50 (JIMT-1 (HER2 positive); [10]) is on record?
**A.** The IC50 was 8.93 nM.

**Q.** What about the IC50 [5, 11] of the same compound?
**A.** The IC50 was 11.8 nM.

**Q.** And the IC50 (SK-BR3 (HER2 positive); [12])?
**A.** Its IC50 is 2.52 nM.

**Q.** What does the source list for `CC[C@H](C)[C@@H]([C@@H](CC(=O)N1CCC[C@H]1[C@H](OC)[C@@H](C)C(=O)N[C@H](C)[C@@H](O)c1ccccc1)OC)N(C)C(=O)[C@@H](NC(=O)[C@@H](NC)C(C)C)C(C)C` [MMAE] (H-[NMeV]V[Dil][Dolaproine]-X1)?
**A.** Cell viability (%) Co-culture (SK-BR3:MDA-MB-468 = 1:1) [1]: 12%; bystander effect (already known) [6]: known to exhibit a bystander effect; Cell viability (%) SK-BR3 [3]: 12%; Cell viability (%) MDA-MB-468 [4]: 14%

**Q.** Which results are given for `CC[C@H](C)[C@@H]([C@@H](CC(=O)N1CCC[C@H]1[C@H](OC)[C@@H](C)C(=O)N[C@@H](Cc1ccccc1)C(=O)O)OC)N(C)C(=O)[C@@H](NC(=O)[C@@H](NC)C(C)C)C(C)C` [MMAF] (H-[NMeV]V[Dil][Dolaproine]F-OH)?
**A.** Cell viability (%) Co-culture (SK-BR3:MDA-MB-468 = 1:1) [1]: 99%; bystander effect (already known) [6]: known to exhibit no bystander effect; Cell viability (%) SK-BR3 [3]: 101%; Cell viability (%) MDA-MB-468 [4]: 105%

**Q.** With `C=C1C[C@H]2C=Nc3cc(OCCCCCOc4cc5c(cc4OC)C(=O)N4CC(=C)C[C@H]4C=N5)c(OC)cc3C(=O)N2C1` [SG2057] as the compound, how does the viability at 0.001 µM [1] read?
**A.** The viability at 0.001 µM was 6%.

**Q.** What about the IC50 (JIMT-1 (HER2 positive); JIMT-1, 144 h, read-out: IC50 (nM) JIMT-1, comparison of anti-HER2 ADCs, 144 hours, SRB) of the same compound?
**A.** Its IC50 is 0.05 nM.

**Q.** And the IC50 (JIMT-1 (HER2 positive); [10])?
**A.** Its IC50 is 0.04 nM.

**Q.** And the “body weight at end of 4th week as compared to body weight at time of administration” value [2, 7]?
**A.** The value was 167%.

**Q.** And the “body weight at end of 4th week as compared to body weight at time of administration” value [2, 8]?
**A.** Its value is 148%.

**Q.** And the “inhibition of weight gain” value [2]?
**A.** Its value is “significantly inhibited weight gain”.

**Q.** And the “body weight at end of 4th week as compared to body weight at time of administration” value [2, 9]?
**A.** The value was 115%.

**Q.** And the viability at 0.001 µM [3]?
**A.** The viability at 0.001 µM was 7%.

**Q.** What about the viability at 0.001 µM [4] of the same compound?
**A.** Its viability at 0.001 µM is 4%.

**Q.** What about the IC50 ([5]; MCF7, 144 h, read-out: IC50 (nM) MCF7, comparison of anti-HER2 ADCs, 144 hours, SRB) of the same compound?
**A.** Its IC50 is 0.06 nM.

**Q.** And the IC50 [5, 11]?
**A.** The IC50 was 0.05 nM.

**Q.** What about the IC50 (SK-BR3 (HER2 positive); SK-BR-3, 144 h, read-out: IC50 (nM) SK-BR3, comparison of anti-HER2 ADCs, 144 hours, SRB) of the same compound?
**A.** Its IC50 is 0.02 nM.

**Q.** What about the IC50 (SK-BR3 (HER2 positive); [12]) of the same compound?
**A.** The IC50 was 0.01 nM.
